Test results published in patent publication US11958861B2, “Spirocyclic lactams as JAK2 V617F inhibitors” (Incyte Corporation, priority 2021, dated 2024).
Counter-ions that a name gives are not always drawn.

How the values were obtained:
[1] = biological target: T1, catalytic domain (JH1, amino acids 808-1132) of human JAK2 (Homo sapiens, UniProt O60674); assay: JAK2 HTRF Enzyme Activity Assay; type: biochemical; conditions: ATP 30 μM, read-out: ENZ 30UMATP
T1 construct: catalytic domain (JH1, amino acids 808-1132) of human JAK2; His (N); purchased BPS Bioscience 40450; host or cells: baculovirus expression system
Procedure, shortened: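 His-tagged JAK2 JH1 from baculovirus, 0.015 nM, incubated with compound, ATP at 30 μM or 1 mM and 500 nM biotinylated peptide, pH 7.5, 60 min at 25° C. HTRF read-out via Eu-anti-phosphotyrosine and streptavidin-APC after EDTA stop; IC50 from four-parameter dose-response fit.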

[2] = biological target: T2, pseudo-kinase domain (JH2, amino-acids 536-812) of human Wild Type JAK2 (Homo sapiens, UniProt O60674, F794H/W659A/W777A); assay: JAK2 LanthaScreen JH2-WT Binding Assay; conditions: 1 hour at 25° C.
T2 construct: pseudo-kinase domain (JH2, amino-acids 536-812 with 3 surface mutations W659A, W777A, F794H); purchased BPS Bioscience 79463; host or cells: baculovirus expression system
Procedure, shortened: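 Biotinylated C-terminal His-Avi-tagged JH2 (residues 536-812, baculovirus-expressed) at 0.145 nM was incubated with serially diluted compounds, 50 nM fluorescent JAK2-JH2 tracer and 0.25 nM streptavidin-Tb cryptate in pH 7.5 Tris buffer with MgCl2, Brij-35, BSA, EGTA, glycerol and DTT. LanthaScreen TR-FRET was read after 1 hour at 25° C; IC50 came from four-parameter fits.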

[3] = biological target: T3, catalytic domain (JH1, amino acids 826-1132) of human JAK2 (Homo sapiens, UniProt O60674); assay: JAK2 LanthaScreen JH1 Binding Assay; conditions: 2 hours at 25° C.
T3 construct: catalytic domain (JH1, amino acids 826-1132) of human JAK2; purchased Carna Biosciences 08-445-20N; host or cells: baculovirus expression system
Procedure, shortened: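 FLAG-tagged biotinylated JAK2 JH1 (1.5 nM) incubated with compounds, 50 nM fluorescent tracer and 0.5 nM streptavidin-Tb in Tris pH 7.5 buffer with MgCl2, BSA, DTT, 2 h at 25 °C.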

[4] = biological target: T4, pseudo-kinase domain (JH2, amino-acids 536-812) of human V617F mutant JAK2 (Homo sapiens, UniProt O60674, F794H/V617F/W659A/W777A); assay: JAK2 LanthaScreen JH2-V617F Binding Assay; conditions: 1 hour at 25° C.
T4 construct: pseudo-kinase domain (JH2, amino-acids 536-812 with 3 surface mutations W659A, W777A, F794H); purchased BPS Bioscience 79498; host or cells: baculovirus expression system
Procedure, shortened: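 Biotinylated His-Avi-tagged construct, baculovirus-expressed, at 0.26 nM; compounds competed against 50 nM fluorescent JH2 tracer with 0.25 nM streptavidin-Tb in Tris pH 7.5 buffer. Non-specific binding defined with 2 mM ATP. Read after 1 h at 25° C by TR-FRET; IC50 from four-parameter fit.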

T1 sequence (O60674 808-1132): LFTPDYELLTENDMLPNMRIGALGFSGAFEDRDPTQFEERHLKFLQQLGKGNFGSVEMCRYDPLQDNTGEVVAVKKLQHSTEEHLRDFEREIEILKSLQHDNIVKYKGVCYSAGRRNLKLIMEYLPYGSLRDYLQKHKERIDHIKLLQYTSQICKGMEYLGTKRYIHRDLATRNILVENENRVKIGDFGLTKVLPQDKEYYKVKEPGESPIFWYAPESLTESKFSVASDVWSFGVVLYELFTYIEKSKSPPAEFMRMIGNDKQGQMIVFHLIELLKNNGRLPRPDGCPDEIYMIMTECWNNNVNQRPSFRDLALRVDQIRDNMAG
T2 sequence (O60674 536-812 W659A/W777A/F794H): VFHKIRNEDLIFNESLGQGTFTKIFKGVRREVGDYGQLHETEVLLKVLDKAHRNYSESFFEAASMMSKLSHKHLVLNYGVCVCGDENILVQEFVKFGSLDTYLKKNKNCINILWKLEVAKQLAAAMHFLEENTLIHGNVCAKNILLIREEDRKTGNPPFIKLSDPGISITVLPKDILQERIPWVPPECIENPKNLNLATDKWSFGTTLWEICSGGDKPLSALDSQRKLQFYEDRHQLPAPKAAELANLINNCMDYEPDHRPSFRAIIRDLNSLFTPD
T4 sequence (O60674 536-812 V617F/W659A/W777A/F794H): as the sequence (O60674 536-812 W659A/W777A/F794H) above, with V82F counted along it
T3 sequence (O60674 826-1132): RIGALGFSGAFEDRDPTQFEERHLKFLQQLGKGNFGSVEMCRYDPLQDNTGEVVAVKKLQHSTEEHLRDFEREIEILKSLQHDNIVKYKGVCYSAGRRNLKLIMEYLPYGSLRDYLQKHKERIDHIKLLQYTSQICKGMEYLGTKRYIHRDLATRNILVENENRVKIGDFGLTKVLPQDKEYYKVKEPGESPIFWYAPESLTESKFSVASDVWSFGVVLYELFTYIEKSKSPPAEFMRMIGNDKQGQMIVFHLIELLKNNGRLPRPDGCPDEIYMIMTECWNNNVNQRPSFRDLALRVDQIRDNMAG

SMILES	IC50 [1]	IC50 [2]	IC50 [3]	IC50 [4]
CCNC(=O)NC1CC(CC#N)(N2CCC3(CC2)C(=O)N(C)c2cnc4[nH]c(-c5cnn(C)c5)c(-c5ccccc5)c4c23)C1 (centres unmarked) [Example 28, 1-(3-(Cyanomethyl)-3-(6-methyl-2-(1-methyl-1H-pyrazol-4-yl)-7-oxo-1-phenyl-6,7-dihydro-3H-spiro[dipyrrolo[2,3-b:3′,2′-d]pyridine-8,4′-piperidin]-1′-yl)cyclobutyl)-3-ethylurea, trifluoroacetate salt]	100 to 500 nM	≤ 100 nM	100 to 500 nM	≤ 100 nM
CN1C(=O)C2(CCN(CC3(CC#N)CC4(CCC4)C3)C2)c2c1cnc1[nH]c(-c3cnn(C)c3)c(-c3ccc4c(cnn4C)c3)c21 (racemic) [Example 70, 2-(2-((6-Methyl-1-(1-methyl-1H-indazol-5-yl)-2-(1-methyl-1H-pyrazol-4-yl)-7-oxo-6,7-dihydro-3H-spiro[dipyrrolo[2,3-b:3′,2′-d]pyridine-8,3′-pyrrolidin]-1′-yl)methyl)spiro[3.3]heptan-2-yl)acetonitrile]	> 2500 nM	≤ 100 nM	> 2500 nM	≤ 100 nM
CCCC(=O)N1CCC2(CC1)CC1(C2)C(=O)N(C)c2cnc3[nH]c(C4=CCC(C(=O)N(C)C)CC4)c(-c4ccc5c(cnn5C)c4)c3c21 (racemic) [Example 63, 4-(1″-Butyryl-6-methyl-1-(1-methyl-1H-indazol-5-yl)-7-oxo-6,7-dihydro-3H-dispiro[dipyrrolo[2,3-b:3′,2′-d]pyridine-8,1′-cyclobutane-3′,4″-piperidin]-2-yl)-N,N-dimethylcyclohex-3-ene-1-carboxamide, trifluoroacetate salt]	> 2500 nM	≤ 100 nM	> 2500 nM	≤ 100 nM
CCS(=O)(=O)N1CC2(C1)CC1(C2)C(=O)N(C)c2cnc3[nH]c(-c4cnn(C)c4)c(-c4ccc5c(cnn5C)c4)c3c21 [Example 86, l-(Ethylsulfonyl)-6″-methyl-1″-(1-methyl-1H-indazol-5-yl)-2″-(1-methyl-1H-pyrazol-4-yl)-3″,6″-dihydro-7″H-dispiro[azetidine-3,1′-cyclobutane-3′,8″-dipyrrolo[2,3-b:3′,2′-d]pyridin]-7″-one, trifluoroacetate salt]	500 to 1250 nM	≤ 100 nM	500 to 1250 nM	≤ 100 nM
[2H]C([2H])([2H])n1ncc2cc(-c3c(-c4cnn(C)c4)[nH]c4ncc5c(c34)[C@@]3(CC[C@H](NS(=O)(=O)C4CC4)C3)C(=O)N5C)ccc21 (racemic) [Example 56, trifluoroacetate salt]	1250 to 2500 nM	≤ 100 nM	1250 to 2500 nM	≤ 100 nM
[2H]C([2H])([2H])n1ncc2cc(-c3c(-c4cnn(C)c4)[nH]c4ncc5c(c34)C3(CCN([C@@](C)(CC#N)COC)CC3)C(=O)N5C)ccc21 (single isomer, unassigned) [Example 80b]	500 to 1250 nM	≤ 100 nM	500 to 1250 nM	≤ 100 nM
CN1C(=O)C2(CCN(C3(C)CCS(=O)(=O)C3)CC2)c2c1cnc1[nH]c(-c3cnn(C)c3)c(-c3ccc4c(cnn4C)c3)c21 (racemic) [Example 78, 6-Methyl-1′-(3-methyl-1,1-dioxidotetrahydrothiophen-3-yl)-1-(1-methyl-1H-indazol-5-yl)-2-(1-methyl-1H-pyrazol-4-yl)-3,6-dihydro-7H-spiro[dipyrrolo[2,3-b:3′-2′-d]pyridine-8,4′-piperidin]-7-one]	500 to 1250 nM	≤ 100 nM	500 to 1250 nM	≤ 100 nM
COC(C)(C)Cn1cc(-c2[nH]c3ncc4c(c3c2-c2ccc3c(cnn3C)c2)C2(CCN(C3(CC#N)CCC3)CC2)C(=O)N4C)cn1 [Example 44, 2-(1-(2-(1-(2-Methoxy-2-methylpropyl)-1H-pyrazol-4-yl)-6-methyl-1-(1-methyl-1H-indazol-5-yl)-7-oxo-6,7-dihydro-3H-spiro[dipyrrolo[2,3-b:3′,2′-d]pyridine-8,4′-piperidin]-1′-yl)cyclobutyl)acetonitrile, trifluoroacetate salt]	100 to 500 nM	≤ 100 nM	100 to 500 nM	≤ 100 nM
CCS(=O)(=O)N1CC(CC#N)(N2CCC3(CC2)C(=O)N(C)c2cnc4[nH]c(-c5cnn(C)c5)c(-c5ccccc5)c4c23)C1 [Example 23, 2-(1-(Ethylsulfonyl)-3-(6-methyl-2-(1-methyl-1H-pyrazol-4-yl)-7-oxo-1-phenyl-6,7-dihydro-3H-spiro[dipyrrolo[2,3-b:3′,2′-d]pyridine-8,4′-piperidin]-1′-yl)azetidin-3-yl)acetonitrile, trifluoroacetate salt]	100 to 500 nM	≤ 100 nM	500 to 1250 nM	≤ 100 nM
CN1C(=O)C2(CCN(C(C(N)=O)c3ccc(F)cc3)CC2)c2c1cnc1[nH]c(-c3cnn(C)c3)c(-c3ccccc3)c21 (racemic) [Example 26, 2-(4-Fluorophenyl)-2-(6-methyl-2-(1-methyl-1H-pyrazol-4-yl)-7-oxo-1-phenyl-6,7-dihydro-3H-spiro[dipyrrolo[2,3-b:3′,2′-d]pyridine-8,4′-piperidin]-1′-yl)acetamide, trifluoroacetate salt]	≤ 100 nM	≤ 100 nM	100 to 500 nM	≤ 100 nM
CCS(=O)(=O)N1CC2(C1)CC1(C2)C(=O)N(C)c2cnc3[nH]c(-c4cnn(CC5CC5)c4)c(-c4ccc5c(cnn5C)c4)c3c21 [Example 87, 2″-(1-(Cyclopropylmethyl)-1H-pyrazol-4-yl)-1-(ethylsulfonyl)-6″-methyl-1″-(1-methyl-1H-indazol-5-yl)-3″,6″-dihydro-7″H-dispiro[azetidine-3,1′-cyclobutane-3′,8″-dipyrrolo[2,3-b:3′,2′-d]pyridin]-7″-one, trifluoroacetate salt]	1250 to 2500 nM	≤ 100 nM	1250 to 2500 nM	≤ 100 nM
